For one compound, Activity results are on record in ChEMBL document CHEMBL3044756, “Distribution of trunk-injected ¹⁴C-imidacloprid in ash trees and effects on emerald ash borer (Coleoptera: Buprestidae) adults” (2009).

SMILES strings stand for the structures.

Common to all, as to type: functional
Assay [1] has as its system Agrilus planipennis. The experiment in a line: Insecticidal activity against Agrilus planipennis isolated from 45 days after 25 uCi compound treated by trunk injected ash tree leaves assessed as mortality measured after 3 days of feeding.
Assay [2] deals with Agrilus planipennis. The experiment in a line: Insecticidal activity against Agrilus planipennis infected ash trees assessed as mortality at 25 uCi treated by trunk injection measured after 21 days.
Assay [3] relates to Agrilus planipennis. The experiment in a line: Insecticidal activity against Agrilus planipennis isolated from 21 days after 25 uCi compound treated by trunk injected ash tree leaves assessed as mortality at 0.55 to 60 ug/g.
The test system of assay [4] is Agrilus planipennis. The experiment in a line: Insecticidal activity against Agrilus planipennis isolated from 21 days after 25 uCi compound treated by trunk injected ash tree leaves assessed as mortality at 64 ug/g.
Assay [5] deals with Agrilus planipennis. The experiment in a line: Insecticidal activity against Agrilus planipennis isolated from 21 days after 25 uCi compound treated by trunk injected ash tree leaves assessed as mortality measured after 3 days of feeding.
Assay [6] relates to Agrilus planipennis. The experiment in a line: Insecticidal activity against Agrilus planipennis infected ash trees assessed as mortality at 25 uCi treated by trunk injection measured after 45 days.

`O=[N+]([O-])/N=C1\NCCN1Cc1ccc(Cl)nc1` [IMIDACLOPRID]: the Activity in the assay on Agrilus planipennis [1] is 70%; in the assay with Agrilus planipennis [2] it was 11%; in the assay on Agrilus planipennis [3] it was 11%; in the assay on Agrilus planipennis [4], 70%; in the assay with Agrilus planipennis [5], 44%; with Agrilus planipennis [6] it was 17%.
